Reference: patent US6706663B2, “Herbicidal 3-heterocyclic substituted benzisothiazole and benzisoxazole compounds” (Wyeth, priority 2000, dated 2004)

Tests used:
SETVI (Setaria viridis) = assay: Postemergence herbicidal evaluation; assay type: in vivo, (L.) Beau
How it was run: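 First, seedlings are raised in flats for about two weeks. Next, compound dispersed in 50/50 acetone/water with 0.5% TWEEN 20 is sprayed at 40 psi to deliver about 0.0040–1.000 kg/ha. Plants are then maintained in the greenhouse and rated 0-9 after four to five weeks.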

[1] = tested on: CYPSE (Cyperus serotinus); assay: Flooded paddy, preemergence weed control; assay type: in vivo, Rottb.; details: rated 3-4 weeks after treatment, 0-9 rating scale
How it was run: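 Seeds or propagules were planted 0.5 cm deep in silt loam and flooded to 1.5–3 cm. Compounds in 50/50 v/v aqueous/acetone were pipetted into the flood water at about 0.0080 to 0.1250 kg/ha. After 3–4 weeks in the greenhouse, effect was rated visually on a 0–9 scale versus untreated control.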

GALAP (Galium aparine) [2] = assay: Postemergence herbicidal evaluation; assay type: in vivo
How it was run: (§1)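 Visual 0–9 injury scores versus control plants, covering stand, vigour, malformation, size, chlorosis and general appearance, taken four to five weeks post-spray and averaged over replicate tests. Plants were sprayed at roughly two weeks old and held on greenhouse benches.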

ZEAMX (Corn, Field) = assay: Postemergence herbicidal evaluation; assay type: in vivo, Zea mays, L.
How it was run: as §1

[3] = tested on: ECHORC (Echinochloa oryzoides); assay: Flooded paddy, preemergence weed control; assay type: in vivo, Echinochloa oryzoides (Ard.) Fritsch.; details: rated 3-4 weeks after treatment, 0-9 rating scale
How it was run: (§2)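 Seeds or propagating organs were sown in the top 0.5 cm of silt loam soil, flooded, and the water kept 1.5 to 3 cm above the soil surface throughout. Plants were grown in the greenhouse and rated visually on a 0-9 scale against a control.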

GALAP (Galium aparine) [4] = assay: Preemergence herbicidal evaluation; assay type: in vivo; details: rated 4-5 weeks after treatment
How it was run: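 Rating 0–9, visual, vs control; 4–5 wk after spraying seeded cups with compound in aq. acetone; conventional greenhouse care.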

ORYSAT (Rice, Tebonnet) = assay: Preemergence herbicidal evaluation; assay type: in vivo, Oryza sativa, (L.) Tebonnet; details: rated 4-5 weeks after treatment
[5] = tested on: ECHCG (Echinochloa crus-galli); assay: Postemergence herbicidal evaluation; assay type: in vivo, (L.) Beau
How it was run: as §1

[6] = tested on: TRZAWR (Wheat, Winter, cv Riband); assay: Postemergence herbicidal evaluation; assay type: in vivo, Triticum aestivum
How it was run: as §1

[7] = tested on: SAGPY (Sagittaria pygmaea); assay: Flooded paddy, preemergence weed control; assay type: in vivo, L.; details: rated 3-4 weeks after treatment, 0-9 rating scale
How it was run: as §2

Structure (SMILES) | Postemergence herbicidal rating, SETVI (SETVI (Setaria viridis); rate 0.0320 kg/ha) | Postemergence herbicidal rating, SETVI (SETVI (Setaria viridis); rate 0.0620 kg/ha) | herbicidal rating, CYPSE ([1]; rate 0.0320 kg/ha) | herbicidal rating, CYPSE ([1]; rate 0.1250 kg/ha) | Postemergence herbicidal rating, GALAP (GALAP (Galium aparine) [2]; rate 0.0320 kg/ha) | Postemergence herbicidal rating, GALAP (GALAP (Galium aparine) [2]; rate 0.0620 kg/ha) | Postemergence herbicidal rating, ZEAMX (ZEAMX (Corn, Field); rate 0.0320 kg/ha) | Postemergence herbicidal rating, ZEAMX (ZEAMX (Corn, Field); rate 0.0620 kg/ha) | herbicidal rating, ECHORC ([3]; rate 0.0320 kg/ha) | herbicidal rating, ECHORC ([3]; rate 0.1250 kg/ha) | GALAP preemergence herbicidal rating (GALAP (Galium aparine) [4]; Rate 0.0620 kg/ha) | GALAP preemergence herbicidal rating (GALAP (Galium aparine) [4]; Rate 0.1250 kg/ha) | ORYSAT preemergence herbicidal rating (ORYSAT (Rice, Tebonnet); Rate 0.0620 kg/ha) | ORYSAT preemergence herbicidal rating (ORYSAT (Rice, Tebonnet); Rate 0.1250 kg/ha) | Postemergence herbicidal rating, ECHCG ([5]; rate 0.0320 kg/ha) | Postemergence herbicidal rating, ECHCG ([5]; rate 0.0620 kg/ha) | Postemergence herbicidal rating, TRZAWR ([6]; rate 0.0320 kg/ha) | Postemergence herbicidal rating, TRZAWR ([6]; rate 0.0620 kg/ha) | herbicidal rating, SAGPY ([7]; rate 0.0320 kg/ha) | herbicidal rating, SAGPY ([7]; rate 0.1250 kg/ha) | further results
Cn1c(C(F)(F)F)cc(=O)n(-c2ccc3snc(-c4cccs4)c3c2)c1=O [Compound 3, 1-methyl-3-[3-(2-thienyl)-1,2-benzisothiazol-5-yl]-6-(trifluoromethyl)uracil] | 3.0 | 9.0 | 6.5 | 6.5 | 5.0 | 4.0 | 5.0 | 5.5 | 8.0 | 9.0 | 9.0 | 9.0 | 6.0 | 5.0 | 2.0 | 3.0 | 2.5 | 4.5 | 1.0 | 5.5 | Postemergence herbicidal rating, SETVI (SETVI (Setaria viridis); rate 0.1250 kg/ha): 9.0; herbicidal rating, CYPSE ([1]; rate 0.0080 kg/ha): 0.0; Postemergence herbicidal rating, GALAP (GALAP (Galium aparine) [2]; rate 0.1250 kg/ha): 6.0; Postemergence herbicidal rating, ZEAMX (ZEAMX (Corn, Field); rate 0.1250 kg/ha): 6.5; herbicidal rating, ECHORC ([3]; rate 0.0080 kg/ha): 2.0; GALAP preemergence herbicidal rating (GALAP (Galium aparine) [4]; Rate 0.2500 kg/ha): 9.0; ORYSAT preemergence herbicidal rating (ORYSAT (Rice, Tebonnet); Rate 0.2500 kg/ha): 5.0; Postemergence herbicidal rating, ECHCG ([5]; rate 0.1250 kg/ha): 4.0; Postemergence herbicidal rating, TRZAWR ([6]; rate 0.1250 kg/ha): 5.0; herbicidal rating, SAGPY ([7]; rate 0.0080 kg/ha): 0.0
CCOC(=O)C1CS[C@H](c2nsc3ccc(-n4c(=O)cc(C(F)(F)F)n(C)c4=O)cc23)N1 (stereo partly drawn) [Compound 2, ethyl (R)-2-[5-[3,6-dihydro-3-methyl-2,6-dioxo-4-(trifluoromethyl)-1(2H)-pyrimidinyl]-1,2-benzisothiazol-3-yl]-4-thiazolidinecarboxylate] | 6.0 | 7.0 | 0.0 | 0.0 | 5.0 | 6.0 | 7.0 | 7.0 | 0.0 | 2.0 | 5.0 | 9.0 | 3.0 | 6.0 | 3.0 | 4.0 | 5.0 | 6.5 | 0.0 | 0.0 | GALAP preemergence herbicidal rating (GALAP (Galium aparine) [4]; Rate 0.2500 kg/ha): 9.0; ORYSAT preemergence herbicidal rating (ORYSAT (Rice, Tebonnet); Rate 0.2500 kg/ha): 7.0
Cc1cc(C)nc(-c2nsc3ccc(-n4c(=O)cc(C(F)(F)F)n(C)c4=O)cc23)n1 [Compound 40, 3-[3-(4,6-dimethyl-2-pyrimidinyl)-1,2-benzisothiazol-5-yl]-1-methyl-6-(trifluoromethyl)uracil] | 3.0 | 9.0 | 0.0 | 0.0 | 2.0 | 2.0 | 4.5 | 5.0 | 2.0 | 6.0 |  |  |  |  | 0.0 | 1.0 | 3.5 | 4.0 | 0.0 | 5.0 | Preemergence herbicidal rating GALAP (GALAP (Galium aparine) [4]; Rate 0.0620 kg/ha): 0.0; Preemergence herbicidal rating GALAP (GALAP (Galium aparine) [4]; Rate 0.1250 kg/ha): 0.0; Preemergence herbicidal rating GALAP (GALAP (Galium aparine) [4]; Rate 0.2500 kg/ha): 8.0; Preemergence herbicidal rating ORYSAT (ORYSAT (Rice, Tebonnet); Rate 0.0620 kg/ha): 1.0; Preemergence herbicidal rating ORYSAT (ORYSAT (Rice, Tebonnet); Rate 0.1250 kg/ha): 2.0; Preemergence herbicidal rating ORYSAT (ORYSAT (Rice, Tebonnet); Rate 0.2500 kg/ha): 4.0
CN(C(=O)c1nsc2ccc(-n3c(=O)cc(C(F)(F)F)n(C)c3=O)cc12)c1ccc(Cl)cc1 [Compound 18, 1,2-benzisothiazole-3-carboxanilide, 4′-chloro-5-[3,6-dihydro-3-methyl-2,6-dioxo-4-(trifluoromethyl)-1(2H)-pyrimidinyl]-N-methyl-] | 0.0 | 0.0 | 4.0 | 4.0 | 2.0 | 4.0 | 5.0 | 5.0 | 6.0 | 9.0 | 0.0 | 0.0 | 0.0 | 5.0 | 0.0 | 0.0 | 3.0 | 4.0 | 1.5 | 5.0 | Postemergence herbicidal rating, SETVI (SETVI (Setaria viridis); rate 0.1250 kg/ha): 5.0; Postemergence herbicidal rating, SETVI (SETVI (Setaria viridis); rate 0.2500 kg/ha): 9.0; Postemergence herbicidal rating, GALAP (GALAP (Galium aparine) [2]; rate 0.1250 kg/ha): 6.0; Postemergence herbicidal rating, GALAP (GALAP (Galium aparine) [2]; rate 0.2500 kg/ha): 9.0; Postemergence herbicidal rating, ZEAMX (ZEAMX (Corn, Field); rate 0.1250 kg/ha): 5.5; Postemergence herbicidal rating, ZEAMX (ZEAMX (Corn, Field); rate 0.2500 kg/ha): 7.0; herbicidal rating, ECHORC ([3]; rate 0.0080 kg/ha): 0.0; GALAP preemergence herbicidal rating (GALAP (Galium aparine) [4]; Rate 0.2500 kg/ha): 9.0; ORYSAT preemergence herbicidal rating (ORYSAT (Rice, Tebonnet); Rate 0.2500 kg/ha): 8.0; Postemergence herbicidal rating, ECHCG ([5]; rate 0.1250 kg/ha): 0.0; Postemergence herbicidal rating, ECHCG ([5]; rate 0.2500 kg/ha): 5.0; Postemergence herbicidal rating, TRZAWR ([6]; rate 0.1250 kg/ha): 5.0; Postemergence herbicidal rating, TRZAWR ([6]; rate 0.2500 kg/ha): 6.0; herbicidal rating, SAGPY ([7]; rate 0.0080 kg/ha): 0.0
Cn1c(C(F)(F)F)cc(=O)n(-c2ccc3snc(C4SCCS4)c3c2)c1=O [Compound 24, 3-[3-(1,3-dithiolan-2-yl)-1,2-benzisothiazol-5-yl]-1-methyl-6-(trifluoromethyl)uracil] | 0.0 | 3.0 | 0.0 | 2.0 | 3.0 | 4.0 | 5.5 | 6.0 | 5.0 | 7.0 | 5.0 | 5.0 | 0.0 | 3.0 | 0.0 | 2.0 | 4.0 | 4.0 | 0.0 | 5.0 | ORYSAT preemergence herbicidal rating (ORYSAT (Rice, Tebonnet); Rate 0.2500 kg/ha): 6.0
Cc1ccc(-c2nsc3ccc(-n4c(=O)cc(C(F)(F)F)n(C)c4=O)cc23)nc1 [Compound 42, 1-methyl-3-[3-(5-methyl-2-pyridyl)-1,2-benzisothiazol-5-yl]-6-(trifluoromethyl)uracil] | 5.0 | 5.0 | 0.0 | 0.0 | 1.0 | 3.0 | 5.5 | 5.5 | 2.0 | 6.0 |  |  |  |  | 1.0 | 1.0 | 4.0 | 5.0 | 0.0 | 3.0 | Postemergence herbicidal rating, SETVI (SETVI (Setaria viridis); rate 0.1250 kg/ha): 9.0; Postemergence herbicidal rating, GALAP (GALAP (Galium aparine) [2]; rate 0.1250 kg/ha): 3.0; Postemergence herbicidal rating, ZEAMX (ZEAMX (Corn, Field); rate 0.1250 kg/ha): 5.5; Preemergence herbicidal rating GALAP (GALAP (Galium aparine) [4]; Rate 0.0620 kg/ha): 0.0; Preemergence herbicidal rating GALAP (GALAP (Galium aparine) [4]; Rate 0.1250 kg/ha): 0.0; Preemergence herbicidal rating GALAP (GALAP (Galium aparine) [4]; Rate 0.2500 kg/ha): 3.0; Preemergence herbicidal rating ORYSAT (ORYSAT (Rice, Tebonnet); Rate 0.0620 kg/ha): 0.0; Preemergence herbicidal rating ORYSAT (ORYSAT (Rice, Tebonnet); Rate 0.1250 kg/ha): 3.5; Preemergence herbicidal rating ORYSAT (ORYSAT (Rice, Tebonnet); Rate 0.2500 kg/ha): 5.0; Postemergence herbicidal rating, ECHCG ([5]; rate 0.1250 kg/ha): 3.0; Postemergence herbicidal rating, TRZAWR ([6]; rate 0.1250 kg/ha): 5.0
